How the values were obtained:
Assay type in all cases: cell-based
[1] = biological target: T1, SEQ ID NO:33 with substitution S172D (Homo sapiens, UniProt P36544, F159M/H163T/I152M/R155K/S172D/V154L/W156N/Y151P); experiment: Electrophysiology, automated patch clamp in HEK293T cells; settings: FIG. 10B
T1 construct: expressed in transfected cells; host or cells: Lenti-X 293T (HEK293T) cells, pcDNA3.1(+) plasmid
Protocol: (§1) For HEK293T studies, cDNAs encoding ion channels were cloned into pcDNA3.1 using standard recombination techniques. HEK293T cells from Clontech (Lenti-X™ 293T Cell Line) were cultured in DMEM supplemented with 10% FBS and 1% Pen/Strep to 40-50% confluence using standard cell culture protocols, transfected with ion channel plasmids at a concentration of 18 μg per 15 cm dish using Fugene 6, and grown for an additional 24 hours. Cells were then assayed on a medium throughput electrophysiological system (IonFluxHT and/or Mercury, Fluxion Biosciences) in which dose-response relationships may be assessed through a microfluidics-based platform for establishing whole cell configurations. Ensemble plates were primed with extracellular buffer (140 mM NaCl, 5 mM KCl, 2 mM CaCl2, 1 mM MgCl2, 10 mM HEPES, and 10 mM glucose, pH 7.2 with NaOH, mOsm 310), intracellular buffer (145 mM CsCl, 2 mM CaCl2, 2 mM MgCl2, 10 mM HEPES, and 10 mM EGTA, pH 7.2 with CsOH, mOsm 305), as adapted from Lynagh and Lynch, and test compounds (stocks prepared fresh) diluted in extracellular buffer. Cells were then released from the plate with Accutase, centrifuged, resuspended in extracellular buffer, and loaded into Ensemble plates. Cells were then subjected to a standard protocol for priming, trapping, breaking, and establishing whole cell configuration, with cells held at −60 mV throughout the recording. After recording baseline, progressive doses of test compounds were applied using the IonFlux software to assess dose response relationships. Data were then analyzed off-line using custom Python scripts to convert data to .csv format, re-plot traces, and apply QC measurements to reject unstable recordings (i.e. thresholding based on access resistance and/or standard deviation in baseline, as well as artifact rejection). Peak currents were then calculated and population data were fit using a 4-parameter logistic equation as described by the Hill Equation

[2] = biological target: T2, SEQ ID NO:33 with substitution L131S (Homo sapiens, UniProt P36544, F159M/H163T/I152M/L131S/R155K/V154L/W156N/Y151P); experiment: as above; settings: FIG. 10A
T2 construct: expressed in transfected cells; host or cells: Lenti-X 293T (HEK293T) cells, pcDNA3.1(+) plasmid
T2 sequence (P36544 with tags, fused parts or gaps L131S/Y151P/I152M/V154L/R155K/W156N/F159M/H163T): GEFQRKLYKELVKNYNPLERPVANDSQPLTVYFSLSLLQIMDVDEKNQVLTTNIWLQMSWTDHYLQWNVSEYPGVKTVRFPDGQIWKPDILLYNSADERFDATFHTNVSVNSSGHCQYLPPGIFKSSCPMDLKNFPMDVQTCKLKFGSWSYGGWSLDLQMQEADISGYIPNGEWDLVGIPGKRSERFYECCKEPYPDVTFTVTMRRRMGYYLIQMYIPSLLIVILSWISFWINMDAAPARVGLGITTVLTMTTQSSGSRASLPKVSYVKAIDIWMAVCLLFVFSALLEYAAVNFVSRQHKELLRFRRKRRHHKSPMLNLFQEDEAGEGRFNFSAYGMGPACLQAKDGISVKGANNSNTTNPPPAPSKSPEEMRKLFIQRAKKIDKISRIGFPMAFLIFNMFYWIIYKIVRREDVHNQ
Protocol: as §1

[3] = biological target: T3, SEQ ID NO:33 with substitution W77M (Homo sapiens, UniProt P36544, F159M/H163T/I152M/R155K/V154L/W156N/W77M/Y151P); experiment: as above; settings: FIG. 10C
T3 construct: expressed in transfected cells; host or cells: Lenti-X 293T (HEK293T) cells, pcDNA3.1(+) plasmid
T3 sequence (P36544 with tags, fused parts or gaps W77M/Y151P/I152M/V154L/R155K/W156N/F159M/H163T): as the sequence (P36544 with tags, fused parts or gaps L131S/Y151P/I152M/V154L/R155K/W156N/F159M/H163T) above, with W55M, S109L counted along it
Protocol: as §1

[4] = biological target: T4, SEQ ID NO:33 with substitution L131T (Homo sapiens, UniProt P36544, F159M/H163T/I152M/L131T/R155K/V154L/W156N/Y151P); experiment: as above; settings: FIG. 10D
T4 construct: expressed in transfected cells; host or cells: Lenti-X 293T (HEK293T) cells, pcDNA3.1(+) plasmid
T4 sequence (P36544 with tags, fused parts or gaps L131T/Y151P/I152M/V154L/R155K/W156N/F159M/H163T): as the sequence (P36544 with tags, fused parts or gaps L131S/Y151P/I152M/V154L/R155K/W156N/F159M/H163T) above, with S109T counted along it
Protocol: as §1

[5] = biological target: T5, engineered chimeric LGIC receptor SEQ ID NO:41 (Homo sapiens, UniProt P36544, F159M/H163T/I152M/K68T/N69T/Q70M/R155K/V154L/W156N/Y151P); experiment: Plate reader YFP quench plots; settings: FIG. 7
T5 construct: expressed in transfected cells; host or cells: Lenti-X 293T cells stably expressing YFP (H148Q/I152L) reporter; pcDNA3.1(+) plasmid
T5 sequence (P36544 with tags, fused parts or gaps K68T/N69T/Q70M/Y151P/I152M/V154L/R155K/W156N/F159M/H163T): as the sequence (P36544 with tags, fused parts or gaps L131S/Y151P/I152M/V154L/R155K/W156N/F159M/H163T) above, with K46T, N47T, Q48M, S109L counted along it
Protocol: Lenti-X 293T cells (LX293T, Clontech) were maintained in DMEM containing 10% FBS and 1% penicillin/streptomycin (Invitrogen). […] The next day, the cells were transiently transfected with 0.1 μg of DNA per well using standard Fugene protocol (Promega). On the day of assay, cells were washed 2 times in 1× extracellular solution (1×ECS: 140 mM NaCl, 5 mM KCl, 1 mM MgCl2, 2 mM CaCl2, 10 mM HEPES, 10 mM glucose, pH 7.2, mOsms 300). After the last wash, 100 μL of 1×ECS was added to the wells and the plate was incubated at 37° C. for 30 min. While incubating the plate, the drugs were diluted to a 2× concentration in 1×ECS-NaI (same components as 1×ECS except the 140 mM NaCl was replaced by 140 mM NaI). The plates were then read on a Flexstation3 (Molecular Devices). Each well, 8 wells at a time, of the plate is read for 2 min using a Flexstation3 (Molecular Devices) as follows: 1) a baseline YFP fluorescence is read for 17 sec, 2) 100 μL of ligand is added, and 3) the changes in YFP fluorescence are then measured every 1.3 sec for the remaining time.
To further tune the responsiveness of the engineered LGIC receptors to native and non-native ligands, the binding pocket of each ligand in the alpha7-nAChR was modeled and the amino acid residues that form the binding pocket were mapped. […]

T1 sequence (P36544 with tags, fused parts or gaps Y151P/I152M/V154L/R155K/W156N/F159M/H163T/S172D): as the sequence (P36544 with tags, fused parts or gaps L131S/Y151P/I152M/V154L/R155K/W156N/F159M/H163T) above, with S109L, S150D counted along it

c1cnc2c(c1)C[C@@]1(CN3CCC1CC3)O2 [AZD-0328]
right-ward shift in EC50 relative to parental chimera SEQ ID NO:33 [1]: 2 fold | right-ward shift in EC50 relative to parental chimera SEQ ID NO:33 [2]: 2 fold | right-ward shift in EC50 relative to parental chimera SEQ ID NO:33 [3]: > 2.5 log | right-ward shift in EC50 relative to parental chimera SEQ ID NO:33 [4]: ~1 log | response of Chimera #41 compared with Chimera #33 [5]: responds to lower doses

From patent publication US10538571B2, “Compositions and methods for neurological diseases” (Coda Biotherapeutics, Inc., priority 2017, dated 2020)
